Laboratory results taken from US20240366679A1, “METHOD FOR TREATING IMMUNE DISEASES USING CALCINEURIN INHIBITOR AND STEM CELLS” (KANGSTEM BIOTECH CO., LTD., priority 2021, published 2024).
“Also recorded” adds a separate entry of the source.

Assays:
hUCB-MSC [1] = test: MTT assay, cell viability of hUCB-MSC; format: cell-based; conditions: pimecrolimus various concentrations, 3 days, FIG. 2A
Method: First, the stem cells (hUCB-MSC) were cultured and treated with various concentrations of pimecrolimus for 3 days, and then the change in cell viability of hUCB-MSC were compared using the MTT assay (FIG. 2A).

[2] = system: hUCB-MSC surface markers (CD45, CD34, CD36, CD105, CD29, CD73); test: Flow cytometry of surface markers of hUCB-MSC; format: cell-based; conditions: pimecrolimus 100 ng/ml, 3 days, FIG. 2E
Method: Lastly, the stem cells (hUCB-MSC) were cultured and treated with 100 ng/ml of pimecrolimus for 3 days, and then the expression levels of surface markers (CD45, CD34, CD36, CD105, CD29, CD73) of hUCB-MSC were compared using flow cytometry. (FIG. 2E).

[3] = system: PBMC cells treated with Concanavalin A (ConA); test: MLR analysis, immunosuppressive activity on ConA-treated PBMC; format: cell-based
Method: PBMC cells treated with Concanavalin A (ConA) were cultured and treated with pimecrolimus and mesenchymal stem cells (hUCB-MSC) individually or in combination, and then the immunosuppressive activity measured in each experimental group was compared (FIG. 3). In particular, PBMC cells that were not treated with ConA, not co-cultured with hUCB-MSC, and not treated with pimecrolimus were used as the negative control (NC), and as the positive control (PC) treated with ConA, PBMC cells that were not co-cultured with hUCB-MSC and not treated with pimecrolimus were used as the positive control (PC).
Specifically, PBMC cells treated with Concanavalin A (ConA) were cultured and treated with pimecrolimus and hUCB-MSC individually or in combination, and then the immunosuppressive activity measured in each experimental group was compared.
In particular, 10 experimental groups were set according to the combination pattern of pimecrolimus and hUCB-MSC (Table 1)

[4] = system: TGF-β expressed in hUCB-MSCs; test: TGF-β ELISA of hUCB-MSC supernatant; format: cell-based, human; conditions: pimecrolimus 0.01 to 100 ng/ml, 72 hours, FIG. 4A
Method: (§1) Specifically, hUCB-MSCs were seeded in a 6-well cell culture plate at a density of 1.5×10^5 cells per well. After 24 hours of incubation, hUCB-MSCs were treated with pimecrolimus at various concentrations and further incubated for 72 hours. After the incubation was completed, the supernatant was collected by centrifugation and the thus-obtained supernatant was applied to Human […] Quantikine ELISA (R&D Systems, Minneapolis, MN, USA) and Human PGE2. Quantikine ELISA (R&D Systems) to analyze the expression level of TGF-β or prostaglandin E2 (PGE2) (FIGS. 4A and 4B).

hUCB-MSC [5] = test: Cellular morphology of hUCB-MSC; format: cell-based; conditions: pimecrolimus 0.01 to 100 ng/ml, 3 days; FIG. 2D
Method: Next, the stem cells (hUCB-MSC) were cultured and treated with various concentrations of pimecrolimus for 3 days, and then the change in cellular morphology of hUCB-MSC were compared (FIG. 2D).

hUCB-MSC [6] = test: Cell cycle analysis of hUCB-MSC; format: cell-based; conditions: pimecrolimus 0.01 to 100 ng/ml, 3 days; FIG. 2C
Method: Next, the stem cells (hUCB-MSC) were cultured and treated with various concentrations of pimecrolimus for 3 days, and then the change in cell cycle profile of hUCB-MSC were compared using cell cycle analysis (FIG. 2C).

[7] = system: COX2 expressed in hUCB-MSCs; test: Western blot of COX2 in hUCB-MSC lysate; format: cell-based; conditions: pimecrolimus 0.01 to 100 ng/ml, 72 hours, GAPDH internal control, FIG. 4C
Method: hUCB-MSCs treated with pimecrolimus were obtained according to the method of Example 3-2, centrifuged to collect the precipitated cells, and then disrupted to obtain cell lysate. Subsequently, Western blot analysis was performed using the thus-obtained cell lysate and COX2 antibodies (FIG. 4C). In particular, GAPDH was used as an internal control.

hUCB-MSC [8] = test: Proliferative capacity of hUCB-MSC; format: cell-based; conditions: pimecrolimus 0.01 to 100 ng/ml, 3 days; FIG. 2B
Method: Next, the stem cells (hUCB-MSC) were cultured and treated with various concentrations of pimecrolimus for 3 days, and then the change in proliferative capacity of hUCB-MSC were compared (FIG. 2B).

[9] = system: PGE2 expressed in hUCB-MSCs; test: PGE2 ELISA of hUCB-MSC supernatant; format: cell-based, human; conditions: pimecrolimus 0.01 to 100 ng/ml, 72 hours, FIG. 4B
Method: as §1

## CC[C@@H]1/C=C(\C)C[C@H](C)C[C@H](OC)[C@H]2O[C@@](O)(C(=O)C(=O)N3CCCC[C@H]3C(=O)O[C@H](/C(C)=C/[C@@H]3CC[C@H](Cl)[C@H](OC)C3)[C@H](C)[C@@H](O)CC1=O)[C@H](C)C[C@@H]2OC [pimecrolimus]
hUCB-MSC [1]
  change in cell viability of hUCB-MSC: did not change the cell viability
[2]
  expression levels of surface markers of hUCB-MSC: did not change the expression levels of surface markers
[3]; Example 3-1, treated individually or in combination, versus ConA positive control, FIG. 3
  immune activity of ConA-treated PBMC (immunosuppressive activity): the immune activity was suppressed
[3]; each treated alone, 3 to 7 days or 5 to 7 days (Experimental Groups 2 and 3; 5 and 9), FIG. 5A
  immunosuppressive activity, separate treatment: comparatively superior over the immunosuppressive activity of hUCB-MSCs
[4]
  level of TGF-β expressed in hUCB-MSCs: did not show a significant change
hUCB-MSC [5]
  change in cellular morphology of hUCB-MSC: did not change the cellular morphology
hUCB-MSC [6]
  change in cell cycle profile of hUCB-MSC: did not change the cell cycle profile
[7]
  level of COX2 expressed in hUCB-MSCs: rapidly reduced in proportion to the treatment concentrations; also recorded: inhibit the expression of COX2
hUCB-MSC [8]
  change in proliferative capacity of hUCB-MSC: did not change the proliferative capacity
[9]
  level of PGE2 expressed in hUCB-MSCs: rapidly reduced in proportion to the treatment concentrations
